Among the test systems are A549 NSCLC; CAKI-1 renal; COLO 205 colon; M14 melanoma; NCI-H460 lung; SK-MEL-5 melanoma; SK-OV-3 ovarian; SNB-19 CNS; UO-31 renal; HS 578T breast.
Assay in all cases: NCI-60 cell line screen, 48 h

Where “and” joins values, the source holds several entries; their conditions need not be identical. Equal entries are not always repeated.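 Grown in 96-well plates, cells were treated for 48 hours with each compound at five concentrations. Insufficient inhibition: endpoint recorded as highest concentration tested. GI50 = concentration required for 50% inhibition of growth. At the TGI there is no net growth.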

Regarding `NS(=O)(=O)c1cc2c(cc1Cl)NC(C(=O)NNC(=O)c1ccncc1)=NS2(=O)=O`, the TGI in the assay on A549 NSCLC, in the assay with CAKI-1 renal, in the assay with COLO 205 colon, with M14 melanoma, with NCI-H460 lung and in the assay with SK-MEL-5 melanoma was above 100 µM each time. In addition, the TGI with SK-OV-3 ovarian, in the assay on SNB-19 CNS and in the assay on UO-31 renal was above 100 µM each time.

In the case of `Clc1cc2ncn(C3CCCO3)c2cc1Cl` (centres undefined), the TGI in the assay on A549 NSCLC, with CAKI-1 renal, in the assay on COLO 205 colon, in the assay with HS 578T breast, in the assay on M14 melanoma and in the assay with SK-MEL-5 melanoma was above 100 µM in each case. The results for the TGI with SK-OV-3 ovarian, in the assay with SNB-19 CNS and in the assay with UO-31 renal were above 100 µM, above 100 µM and 53.6 µM, respectively.

With `Nn1c(=S)[nH]nc(/C=C/c2c(O)ccc3ccccc23)c1=O`, the TGI in the assay with A549 NSCLC was found to be 71.2 µM; in the assay with CAKI-1 renal, 36.1 µM; in the assay with COLO 205 colon it was 27.7 µM; in the assay with M14 melanoma, 41.6 µM; with NCI-H460 lung, 76.5 µM; with SK-MEL-5 melanoma, 26.5 µM. Also, the TGI is 95.4 µM in the assay on SK-OV-3 ovarian, above 100 µM in the assay with SNB-19 CNS and 34.8 µM in the assay with UO-31 renal.

Consider `N#Cc1c(N)n(-c2nc3ccccc3s2)c(=O)c2cc([N+](=O)[O-])ccc12`, for which the TGI with A549 NSCLC was above 56.8 µM; with CAKI-1 renal it was 58.5 µM; in the assay on HS 578T breast, 36.9 µM; with M14 melanoma it was above 55 µM; with NCI-H460 lung, above 65.8 µM; in the assay with SK-OV-3 ovarian it was 98.1 µM. For the same compound, the values for the TGI in the assay on SNB-19 CNS and in the assay on UO-31 renal were above 77.1 µM and above 79.2 µM, respectively.

For the compound `Cc1c(N(Cc2ccccc2)Cc2ccccc2)nc(S(C)(=O)=O)nc1S(C)(=O)=O`, the TGI in the assay with A549 NSCLC turned out to be 29 µM; with CAKI-1 renal, 20.2 µM; in the assay on M14 melanoma it was 4.3 µM; in the assay on NCI-H460 lung, 22.1 µM; in the assay on SK-MEL-5 melanoma, 25.3 µM; with SK-OV-3 ovarian it was 27.7 µM. The values for the TGI in the assay with SNB-19 CNS and in the assay with UO-31 renal were 26.1 µM and 24.7 µM, respectively.

For `O=C(Nc1nc2ccc([N+](=O)[O-])cc2s1)c1cc([N+](=O)[O-])ccc1Cl`, the TGI with CAKI-1 renal came out at 24.3 µM; with COLO 205 colon, 3.65 µM; in the assay on SK-MEL-5 melanoma it was 2.83 µM; with SK-OV-3 ovarian, 13.6 µM.

For `C(/Cc1ccc2c(c1)OCO2)=N\NC1=NCCCCN1`, the TGI in the assay on A549 NSCLC is above 100 µM; in the assay on COLO 205 colon, above 100 µM; in the assay with HS 578T breast, above 100 µM; in the assay on M14 melanoma it was 35.1 µM; with NCI-H460 lung, above 100 µM; in the assay with SK-MEL-5 melanoma, 58.2 µM. The TGI in the assay with SK-OV-3 ovarian, in the assay on SNB-19 CNS and in the assay on UO-31 renal was above 100 µM each time.

As for `Cc1cc(N(CCCl)CCCl)ccc1/C=N\NC(=O)c1cccnc1`, the GI50 in the assay on A549 NSCLC was 21 µM; in the assay on CAKI-1 renal it was 5460 nM; in the assay on COLO 205 colon, 19.1 µM; in the assay on HS 578T breast, 48.6 µM; in the assay on M14 melanoma, 34.4 µM; in the assay on NCI-H460 lung it was 0.685 µM. Moreover, the GI50 in the assay on SK-MEL-5 melanoma is 15.7 µM; in the assay with SNB-19 CNS, above 100 µM; in the assay with UO-31 renal it was 21.6 µM. Further, the TGI in the assay on A549 NSCLC is above 100 µM; in the assay with CAKI-1 renal, 45 µM; with COLO 205 colon it was 85.3 µM; in the assay with HS 578T breast, above 100 µM; in the assay on M14 melanoma, above 100 µM; in the assay with NCI-H460 lung it was 23.3 µM. In addition, the results for the TGI with SK-MEL-5 melanoma, with SNB-19 CNS and in the assay on UO-31 renal were 39.1 µM, above 100 µM and 82.7 µM, respectively.

In the case of `NNC(=O)COc1nc(-c2cccs2)nc2ccc(I)cc12`, the TGI in the assay with A549 NSCLC came to 43.2 µM; in the assay with CAKI-1 renal it was 44.1 µM; with COLO 205 colon it was 70.9 µM; in the assay on M14 melanoma, 58.3 µM; in the assay with NCI-H460 lung it was 70.4 µM; in the assay with SK-MEL-5 melanoma, 45 µM. For the same compound, the TGI was determined as 61 µM with SK-OV-3 ovarian, 39.2 µM in the assay on SNB-19 CNS and 63.5 µM with UO-31 renal.

With `Oc1[nH]c2ccccc2c1N=Nc1nc(-c2ccccc2)cs1`, the TGI with A549 NSCLC is above 100 µM; in the assay with CAKI-1 renal, 39.8 µM; with COLO 205 colon, above 100 µM; in the assay on M14 melanoma, above 100 µM; in the assay on NCI-H460 lung it was 46.6 µM; in the assay with SK-MEL-5 melanoma it was above 100 µM. In addition, the TGI in the assay with SK-OV-3 ovarian, in the assay on SNB-19 CNS and in the assay on UO-31 renal was above 100 µM each time.

With `CCc1n[nH]c(=O)n1-c1ccncc1`, the TGI in the assay with A549 NSCLC, in the assay on CAKI-1 renal, with COLO 205 colon, in the assay on HS 578T breast, in the assay with M14 melanoma and in the assay with NCI-H460 lung was above 100 µM in each case. Besides, the TGI in the assay with SK-MEL-5 melanoma, with SNB-19 CNS and in the assay on UO-31 renal was above 100 µM in each case.

For the compound `CCCSC1=N/C(=C\c2ccco2)C(=O)N1`, the TGI with A549 NSCLC, with CAKI-1 renal, in the assay on COLO 205 colon, with HS 578T breast, in the assay on M14 melanoma and in the assay with NCI-H460 lung was above 100 µM each time. The TGI in the assay with SK-OV-3 ovarian, in the assay on SNB-19 CNS and with UO-31 renal was above 100 µM throughout.

Consider `Cc1ccc(C)c(C(=O)CC2OC(O)C(Cl)C2Cl)c1` (centres undefined), for which the TGI with A549 NSCLC was above 100 µM; in the assay with CAKI-1 renal, 84.4 µM; with COLO 205 colon it was above 100 µM; in the assay on M14 melanoma it was above 100 µM; with NCI-H460 lung, above 100 µM; in the assay with SK-MEL-5 melanoma it was above 100 µM. Besides, the TGI in the assay with SK-OV-3 ovarian, in the assay with SNB-19 CNS and with UO-31 renal was above 100 µM in each case.

`COC1=C(C)C(=O)C2=C(C1=O)C1C3CC4=C(C(=O)C(OC)=C(C)C4=O)C(CNC(=O)C(C)=O)N3C(C#N)C(C2)N1C` (centres undefined): the GI50 was 0.00163 nM in the assay with CAKI-1 renal; 0.00656 µM and 0.0382 µM in the assay on SK-OV-3 ovarian. Also, the TGI in the assay with CAKI-1 renal is 0.126 µM; with HS 578T breast, 0.00238 µM; in the assay with NCI-H460 lung it was 0.0318 µM and 0.211 µM and 0.151 µM; in the assay on SK-OV-3 ovarian, 0.417 µM and 1.55 µM; in the assay with SNB-19 CNS it was 1.45 µM and 0.958 µM.

With `CC(=O)Oc1cc(OC(C)=O)c2c(c1C)CC[C@@H]1[C@@H]2CC[C@]2(C)[C@@H](OC(C)=O)CC[C@@H]12`, the TGI was 34.7 µM with A549 NSCLC; 52.1 µM in the assay with CAKI-1 renal; 53.2 µM with HS 578T breast; 34.9 µM in the assay on M14 melanoma; 34.1 µM with NCI-H460 lung; 30.8 µM in the assay on SK-MEL-5 melanoma. Also, the TGI came to 33.3 µM with SNB-19 CNS and 31.4 µM with UO-31 renal.

The record behind these values is PubChem BioAssay (NCI).
